The record followed here is article PMC6751184, “Heme and hemoglobin utilization by Mycobacterium tuberculosis” (Nature Communications, 2019).

This experiment addresses DppA (Rv3666c), substrate-binding protein of the Dpp transporter (Mycobacterium tuberculosis, UniProt I6X811). The experiment is described as follows: […]; also difference absorption spectroscopy.

Sequence of DppA (Rv3666c), substrate-binding protein of the Dpp transporter (I6X811 entry or part of it): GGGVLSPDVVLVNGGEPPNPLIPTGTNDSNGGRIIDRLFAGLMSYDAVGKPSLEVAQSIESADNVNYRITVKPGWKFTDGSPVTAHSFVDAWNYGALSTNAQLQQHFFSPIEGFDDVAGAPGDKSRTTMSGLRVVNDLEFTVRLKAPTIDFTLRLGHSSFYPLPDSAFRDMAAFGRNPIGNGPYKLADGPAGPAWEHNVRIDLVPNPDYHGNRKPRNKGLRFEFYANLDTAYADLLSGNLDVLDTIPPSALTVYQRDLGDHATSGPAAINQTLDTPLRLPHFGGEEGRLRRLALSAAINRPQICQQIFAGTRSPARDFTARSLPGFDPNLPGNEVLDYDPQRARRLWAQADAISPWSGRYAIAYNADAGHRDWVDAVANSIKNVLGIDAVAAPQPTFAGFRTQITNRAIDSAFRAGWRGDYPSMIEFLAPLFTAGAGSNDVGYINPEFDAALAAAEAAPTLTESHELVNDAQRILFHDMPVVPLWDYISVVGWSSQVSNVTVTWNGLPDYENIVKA

Consider `C=CC1=C(C)C2=Cc3c(C=C)c(C)c4[n]3[Fe]([Cl])[n]3c(c(C)c(CCC(=O)O)c3=CC3=NC(=C4)C(C)=C3CCC(=O)O)=CC1=N2` [hemin], for which the Kd is around 1.5 µM.

The Kd is the equilibrium constant for the complex coming apart.
